The subject of test [1] is primary neurons. As to the kind of experiment: TMRM fluorescence assay of inner mitochondrial membrane potential (ΔΨm). The conditions noted are these: for Emax / EC50: Mus musculus, Primary neuron; for Emax: read-out: TMRM (Effect-size); for EC50: read-out: TMRM-EC50; for TMRM Primary: primary screen, 12.5 μM; for TMRM Primary / TMRM Rescreen: 24 h.
Test [2] concerns NRF2-mediated antioxidant response. The conditions noted are these: WO2012149478A3; cited from earlier work.
Test [3] relates to primary neurons. Nature of the test: Mitochondrial morphology and neurite area after functional modulators. Format: cell-based, mouse. Further details: key to Neurite Area: non-significant (n.s.). The note with it: for axonal mitochondrial circularity / neuritic area: after 48 h of treatment; for Mitochondrial Morphology / Neurite Area: significant change. How it is done:
Mitochondrial morphology and neurite area measurements. Mitochondrial morphology and neurite area were quantified using methods described by Varkuti et al, 2020. Briefly, Cre-dependent mitochondrial targeted GFP2 (mito-GFP) ROSA26 knock-in mice were crossed with Ai14 (007908, The Jackson Laboratory) expressing cytosolic-tdTomato, and the forebrain of P0 pups were isolated and primary neurons were cultured as described above. AAV9 virus containing the iCRE sequence driven by the neuron specific CaMKII promoter was added to the cell culture at plating and 75% of the media replaced 4 h after plating. […] Z-projected images of the green channel were preprocessed (background subtraction: rolling ball, radius=3; median filtering: radius=1) and somatic mitochondria were removed (see details in Varkuti et al, Science Advances 6 (2020) eaaw8702). Red channel images were also preprocessed (tubeness filter, soma removal). Preprocessed images were segmented by GE Developer software (object-based, kernel size: 3). […] The length and circularity measurements for mitochondria were aggregated using the median and the area for neurites using the sum. After removing empty fields and outlier values from the fields, aggregated field values were averaged to well values (4 fields/well, 12 wells/compound). Robust Z-scores were calculated using DMSO-treated wells for each well ((mediancompound−medianDMSO)/median absolute deviationDMSO), well values were averaged for each compound.
A high-content assay was developed in parallel to monitor aspects of mitochondrial dynamics in primary cultured neurons that conditionally express (Cre recombinase dependent) mitochondrial-tagged GFP and cytosolic tdTomato reporters (Varkuti et al., 2020). We monitored two aspects of neuritic mitochondrial dynamics: (1) the health of mitochondria as measured by the average circularity of axonal mitochondria, since defective mitochondria targeted for mitophagy become circular in shape, and (2) the balance between fission/fusion measured by the average length of dendritic mitochondria. […] FIG. 19A illustrates the results of surveying a collection of functional modulators selected from 5 different structural clusters (FIG. 17), quantified as robust z-scores relative to DMSO-treated control neurons.

Test [4] relates to primary neurons. Nature of the test: Oxygen consumption rate (OCR) of permeabilized primary neurons. It is filed as cell-based, mouse.
Procedure: The oxygen consumption rate (OCR) of permeabilized neurons and isolated brain mitochondria (from 9-month old mice) was measured by the XF96 Extracellular Flux analyzer (Seahorse Bioscience). […] Prior to the start of the OCR measurement, all but 30 μl of Neurobasal A/B27 culture medium was removed from each well. Cells were washed twice with pre-warmed MAS-BSA assay medium (4 mg/ml fatty-acid free BSA, pH=7.2) and incubated in 180 μl at 37° C. for 5 min. Following the cartridge calibration, cells were loaded into the XF96 Extracellular Flux analyzer and further equilibrated for 10 min with two cycles of 3 min mixing and 2 min resting prior to the first measurement of basal respiration. OCR were measured at 37° C. under basal conditions followed by the sequential injection of pre-warmed 10× mitochondrial substrates/ADP (20 μl), oligomycin (22 μl), FCCP (24 μl), and rotenone/antimycin A (26 μl). The final concentrations of injected compounds were as follows: 10 mM mitochondrial substrates (pyruvate/malate or succinate), 1 mM ADP, 1.5 μM oligomycin, 3 μM FCCP, 2 μM rotenone/antimycin A. Saponin (25 μg/ml) was co-injected with substrate/ADP to permeabilize the cells and stimulate ADP-dependent respiration. Two baseline measurements were obtained prior to any injection and 2 response measurements were collected after each injection except for after FCCP addition which consisted of 1 measurement (9 total measurements in each assay). Each measurement cycle consisted of 2 min mixing, 2 min waiting, and 3 min data acquisition. This protocol allowed for sequential assessment of basal cell respiration, maximal mitochondrial respiratory capacity (State 3 with substrate/ADP), proton leak (State 4o with oligomycin), uncoupled maximal respiration (State 3U with FCCP) and non-mitochondrial respiration with the Complex I/Complex III inhibitors, rotenone/antimycin A. Cells were washed twice with MAS buffer to remove residue BSA contained in the assay medium, lysed in 50 μl lysis buffer (25 mM HEPES, 1 mM EGTA, 1 mM EDTA, 0.1% SDS, 1% NP-40, 1× protease and phosphatase inhibitor, pH 7.0 adjusted with NaOH) and total protein was determined by BCA assay. Oxygen consumption was normalized to total protein content as pmol O2/min/ug total protein.
Oxygen consumption rate (OCR) or extracellular acidification rate (ECAR) measurements from permeabilized neurons and isolated brain mitochondria were performed using the XF96 Extracellular Flux analyzer (Seahorse Bioscience). For assays using cultured neurons, primary neurons were dissociated from the forebrains of P0 pups, seeded at 1.9×10^4/well (PDL-coated XF96 plate), cultured to DIV13 and incubated with selected compounds or DMSO (0.1%) for 24 h. Prior to the start of the OCR measurement, all but 30 μl of Neurobasal A/B27 culture medium was removed from each well. Cells were washed twice with pre-warmed MAS-BSA assay medium (70 mM sucrose, 220 mM mannitol, 10 mM KH2PO4, 5 mM MgCl2, 2 mM HEPES and 1 mM EGTA, 4 mg/ml fatty-acid free BSA, pH=7.2 adjusted using KOH) and incubated in 180 ul MAS-BSA medium at 37° C. in a CO2-free incubator for 5 m. […] OCR and ECAR were measured at 37° C. under basal conditions followed by the sequential injection of pre-warmed 10× mitochondrial substrates/ADP (20 μl), oligomycin (22 μl), FCCP (24 μl), and rotenone/antimycin A (26 μl).
The subject of the next test is hippocampal neurons. As to the kind of experiment: Spontaneous excitatory postsynaptic currents (sEPSC), whole-cell patch-clamp. The conditions noted are these: 12.5 μM, 24 hr, DIV8. It is filed as cell-based, mouse. The method, then:
Spontaneous excitatory postsynaptic currents in hippocampal neurons. […] The cultures were treated with selected compounds or 0.1% DMSO for 24 hr before measuring spontaneous excitatory postsynaptic currents (sEPSCs). Whole-cell patch-clamp recordings were performed using an Axon Multiclamp 700b amplifier, 1440A Digidata digitizer and data acquisition using pClamp software (Axon Instruments, Foster City, Calif.). The neurons were first recorded in a current clamp mode to monitor cell health. Only neurons with a resting membrane potential of less than −40 mV were used for further analysis. sEPSC recordings were made at 50 kHz and subsequently filtered at 5 kHz. The membrane potential was held at −70 mV during the recording. […] Once a neuron was patched, its seal was monitored, and if the transient resistance was less than […], the recording was not used for analysis. All experiments were performed at room temperature. The frequency and amplitude of sEPSCs were analyzed using the template match search (pClamp) and measured as a percentage of baseline level, calculated from the average of a 5 min baseline recording. The values of the amplitude and frequency of EPSCs for each recording was reported as an average from a 5 min recording period.

Another test relates to primary cortical neurons. The conditions noted are these: Ding et al. 2011; cited from earlier work.
The test system of another test is Drosophila model for AD. As to the kind of experiment: Drosophila model for AD: neuronal mitochondrial morphology. It is filed as in vivo. The conditions noted are these: cell bodies of neurons; 100 micromolar, 15 days-of-age. An excerpt:
To assay representative compounds in this example, we employed a Drosophila model for AD (X. Wang et al., Mol. Neurobiol. […] Flies expressing this toxic protein show: […] Drugs that show efficacy therefore: enlarge neuronal mitochondria (increased volume, increased surface area, increased length), reduce sphericity, and reduce the number of mitochondria compared to untreated Alzheimer's flies. The AD model flies were collected immediately after eclosion from the pupal case and transferred to food that was laced with drug at 100 micromolar concentration. The flies were aged to 15 days-of-age: this is when the mitochondrial pathology is very robust. We compared the morphology of mitochondria collected from these flies treated with drug and compared them to the mitochondria of flies that remained untreated.

Where a name gives a salt, the structure may show the parent alone.

For the compound `COC(=O)[C@@H]1[C@H]2C[C@H]3c4[nH]c5ccccc5c4CCN3C[C@@H]2CC[C@@H]1O` [YOHIMBINE HYDROCHLORIDE], in the test on primary neurons [1], the Emax is 18.6%, the 50% effective concentration (EC50) was 620 nM, the “TMRM Primary” value was determined as 2.70 Z-scores and the “TMRM Rescreen” value came out at 5.70 Z-scores. Besides, the “neuroprotection by inducing the NRF2-mediated antioxidant response” value in test [2] is reported as “neuroprotective”. Also, in the test on primary neurons [3], the axonal mitochondrial circularity entry is given as “robust effects”, the neuritic area result was “increase”, the “Mitochondrial Morphology” value is on record as “elongated” and the “Neurite Area” value is on record as “increased”.

`CCCCOc1ccc(C(=O)CCN2CCCCC2)cc1` [DYCLONINE HYDROCHLORIDE]: in the test on primary neurons [1], the Emax was determined as 22%, the concentration giving a half-maximal response (EC50) is 750 nM, the “TMRM Primary” value turned out to be 3.64 Z-scores and the “TMRM Rescreen” value is 6.30 Z-scores. Moreover, the “State 3 and 3u respiration stimulated by either Complex I or Complex II substrates” value with primary neurons [4] (10 μM, 24 h, cultured neurons) is listed as “significant increase”. Moreover, the OCR entry with primary neurons [4] (oxygen consumption rate, significant change) is “increased”. The “sEPSC frequency and amplitude” value in the test with hippocampal neurons was “increasing both frequency and amplitude”. Further, in the test on primary neurons [3], the axonal mitochondrial circularity result is “robust effects”, the neuritic area result is given as “increase”, the “Mitochondrial Morphology” value was “elongated” and the “Neurite Area” value is reported as “increased”.

Consider `O=c1c(-c2ccc(O)cc2)coc2cc(O)cc(O)c12` [GENISTEIN], for which, in the test with primary neurons [1], the Emax was determined as 19.5%, the EC50 was 1300 nM, the “TMRM Primary” value came out at 3.38 Z-scores and the “TMRM Rescreen” value is recorded as 4.21 Z-scores. Further, the “ΔΨm in primary cortical neurons treated with Aβ peptide” value with primary cortical neurons is “increase ΔΨm”. The “Surface area of mitochondria, p (treated vs untreated)” value with Drosophila model for AD is “p = 0.083”. Besides, in the test with primary neurons [3], the “Mitochondrial Morphology” value is “elongated” and the “Neurite Area” value is reported as “n.s”.

Values taken from patent US20230003721A1, “MITOTHERAPEUTICS FOR THE TREATMENT OF BRAIN DISORDERS” (The University of Florida Research Foundation, Inc., priority 2019, published 2023).
